These results are taken from ChEMBL document CHEMBL1147822, “One-pot synthesis and SAR study of cis-2,6-dialkyl-4-chloro-tetrahydropyrans” (2006).

Type in all cases: functional
In one experiment the test system is SW1573. Kind of experiment: Antiproliferative activity against human SW1573 cells. The note with it: for CC50: read-out: LC50 (the source's name).
A further experiment concerns A2780. The experiment in a line: Antiproliferative activity against human A2780 cells. The note with it: for CC50: read-out: LC50 (the source's name).
The test system of another experiment is WiDr. Kind of experiment: Antiproliferative activity against human WiDr cells.

Broadly, the GI50 is the concentration giving 50% growth inhibition. One may read the TGI as the concentration giving total growth inhibition. Higher therefore signals lower sensitivity of the cells.

In the experiment on SW1573, `COc1ccc([C@@H]2C[C@H](Cl)C[C@H](CC(C)C)O2)cc1` showed a GI50 of 30 µM and a total growth inhibition concentration (TGI) of 80 µM. In the experiment on A2780, it took 25 µM to inhibit growth by half (GI50), the concentration for total growth inhibition (TGI) is 57 µM and the CC50 was 95 µM. In the experiment on WiDr, the GI50 was found to be 36 µM; the LC50 (lethal concentration, 50% net cell kill) turned out to be 95 µM; the TGI amounted to 73 µM.
On to `CC(C)C[C@H]1C[C@@H](Cl)C[C@@H](C2CCCCC2)O1`, for which, in the experiment on SW1573, the concentration for 50% growth inhibition (GI50) turned out to be 22 µM, the TGI amounted to 43 µM and the CC50 worked out at 82 µM. In the experiment on A2780, halving of growth (GI50) required 20 µM, total growth inhibition (TGI) required 38 µM and the CC50 was 73 µM. Further, in the experiment with WiDr, it took 26 µM to inhibit growth by half (GI50) and net growth stopped (TGI) at 63 µM.
Turning to `CC(C)C[C@H]1C[C@@H](Cl)C[C@@H](c2ccccc2)O1`, the GI50 in the experiment on SW1573 stood at 24 µM; with A2780, 17 µM; with WiDr, 39 µM. The concentration for total growth inhibition (TGI) is 48 µM in the experiment on SW1573, 35 µM in the experiment on A2780 and 88 µM in the experiment on WiDr. In addition, the CC50 in the experiment on SW1573 came to 90 µM; in the experiment on A2780 it was 72 µM.
`O=[N+]([O-])c1ccc([C@H]2C[C@@H](Cl)CCO2)cc1`: the GI50 in the experiment on SW1573, in the experiment on A2780 and with WiDr was more than 100 µM throughout.
For the compound `CC(C)C[C@H]1C[C@@H](Cl)C[C@@H](C)O1`, the GI50 with SW1573, with A2780 and in the experiment on WiDr was more than 100 µM in each case.
As for `CC(C)C[C@@H]1C[C@H](Cl)C[C@H](CC(C)C)O1`, the GI50 with SW1573 is 67 µM; with A2780 it was 63 µM; in the experiment on WiDr, more than 100 µM. Moreover, the total growth inhibition concentration (TGI) in the experiment with SW1573 was found to be 89 µM; in the experiment with A2780 it was 90 µM.
As for `Cl[C@H]1CCO[C@@H](c2ccccc2)C1`, the GI50 in the experiment on SW1573, in the experiment with A2780 and in the experiment on WiDr was more than 100 µM each time.
For the compound `CC(C)C[C@H]1C[C@@H](Cl)CCO1`, the GI50 in the experiment on SW1573, with A2780 and in the experiment with WiDr was more than 100 µM each time.
As for `CC(C)C[C@H]1C[C@@H](Cl)C[C@@H](c2ccc([N+](=O)[O-])cc2)O1`, the GI50 in the experiment on SW1573 was found to be 30 µM; in the experiment on A2780 it was 21 µM; in the experiment on WiDr, 38 µM. In the experiment on A2780, this compound returned a TGI of 64 µM.
